Data reported in patent US20120329842A1 (priority 2010, published 2012).
Like-named read-outs stand apart in the source and are kept apart here.

Experiments:
SPM-1 = conditions: data from ref. 2; cited from earlier work
GIM-1 = GIM-1 (Pseudomonas aeruginosa, UniProt Q704V1); conditions: data from ref. 2; cited from earlier work
IMP-1 [1] = target: T1, IMP-1 (Serratia marcescens, UniProt P52699); conditions: data from ref. 2; cited from earlier work
VIM-1 = VIM-1 (Pseudomonas aeruginosa, UniProt A0A0F7KYQ8)
Bla2 = Bla2 (Bacillus anthracis, UniProt Q93T40); assay: biochemical; type: biochemical
[2] = target: human matrix metalloproteinase 8 (MMP-8) (Homo sapiens, UniProt P22894); assay: Human MMP-8 inhibition, commercial assay kit (Enzo); conditions: at concentrations up to 100 μM
IMP-1 [3] = target: T1, IMP-1; assay: biochemical; set-up: species or system Pseudomonas aeruginosa
[4] = target: subclass B2 metallo-β-lactamase CphA (Aeromonas hydrophila, UniProt P26918); conditions: cited from earlier work
IMP-1 [5] = target: T1, IMP-1; conditions: cited from earlier work
other MBLs = conditions: cited from earlier work
[6] = test system: O=C(Cc1cccs1)N[C@@H]1C(=O)N2C(C(=O)O)=C(/C=C/c3ccc([N+](=O)[O-])cc3[N+](=O)[O-])CS[C@H]12; assay: purified protein, by the assay type; conditions: pH 7.5
IMP-1 [7] = target: T1, IMP-1; conditions: ratio of Km values
[8] = data from ref. 2; read-out: Km for VIM-1; cited from earlier work
[9] = read-out: Km for VIM-1; data from ref. 2; cited from earlier work

Chain of GIM-1 (Q704V1 entry or part of it): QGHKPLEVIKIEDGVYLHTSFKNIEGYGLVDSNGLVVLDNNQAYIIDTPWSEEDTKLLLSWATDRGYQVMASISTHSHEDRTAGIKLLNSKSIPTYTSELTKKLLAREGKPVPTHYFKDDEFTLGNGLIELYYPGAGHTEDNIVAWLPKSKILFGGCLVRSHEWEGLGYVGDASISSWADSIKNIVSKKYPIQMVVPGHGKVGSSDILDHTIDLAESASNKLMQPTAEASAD
T1 sequence (P52699 19-246 limits assumed): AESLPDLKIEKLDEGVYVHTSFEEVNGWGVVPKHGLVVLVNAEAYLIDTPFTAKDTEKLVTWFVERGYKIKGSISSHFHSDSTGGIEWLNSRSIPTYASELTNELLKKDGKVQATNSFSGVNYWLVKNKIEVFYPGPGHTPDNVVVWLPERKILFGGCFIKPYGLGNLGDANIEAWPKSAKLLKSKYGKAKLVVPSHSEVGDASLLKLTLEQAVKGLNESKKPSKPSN
Chain of Bla2 (Q93T40 1-256): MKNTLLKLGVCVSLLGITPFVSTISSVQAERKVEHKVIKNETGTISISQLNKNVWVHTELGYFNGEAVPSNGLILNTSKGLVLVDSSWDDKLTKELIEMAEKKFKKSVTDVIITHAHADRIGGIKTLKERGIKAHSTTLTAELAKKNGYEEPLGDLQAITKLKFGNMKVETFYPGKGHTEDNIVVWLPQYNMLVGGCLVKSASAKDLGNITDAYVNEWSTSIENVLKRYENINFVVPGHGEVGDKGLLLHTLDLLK
Chain of human matrix metalloproteinase 8 (MMP-8) (P22894 101-467): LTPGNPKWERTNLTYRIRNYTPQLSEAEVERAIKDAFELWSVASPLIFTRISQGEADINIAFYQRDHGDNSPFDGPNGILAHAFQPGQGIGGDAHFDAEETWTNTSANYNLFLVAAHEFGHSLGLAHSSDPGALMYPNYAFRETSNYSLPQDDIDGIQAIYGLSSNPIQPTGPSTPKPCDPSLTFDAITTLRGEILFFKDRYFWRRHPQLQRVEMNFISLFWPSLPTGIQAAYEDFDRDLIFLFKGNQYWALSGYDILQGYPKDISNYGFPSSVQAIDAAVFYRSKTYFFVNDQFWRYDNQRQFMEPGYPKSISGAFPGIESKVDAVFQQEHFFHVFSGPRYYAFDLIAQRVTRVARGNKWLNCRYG
Chain of subclass B2 metallo-β-lactamase CphA (P26918 28-254): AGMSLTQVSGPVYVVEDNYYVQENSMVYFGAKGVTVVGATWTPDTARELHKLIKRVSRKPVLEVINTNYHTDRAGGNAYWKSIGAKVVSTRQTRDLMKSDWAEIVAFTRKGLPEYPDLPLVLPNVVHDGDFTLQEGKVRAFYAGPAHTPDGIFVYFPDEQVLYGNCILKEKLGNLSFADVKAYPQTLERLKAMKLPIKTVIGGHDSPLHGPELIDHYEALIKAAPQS

In the case of `CC1(C)S[C@@H]2[C@H](NC(=O)[C@H](N)c3ccccc3)C(=O)N2[C@H]1C(=O)O` [Ampicillin], the Km (SPM-1) is listed as 72 µM, the Km (GIM-1) is listed as 20 µM and the Km (IMP-1 [1]) is listed as 200 µM. For the same molecule, the Km (VIM-1; [8]) was 917 µM.

Molecule `C[C@H](CS)C(=O)N1CCC[C@H]1C(=O)O` [Captopril, captopril] has an IC50 (Bla2) of 25 µM.

For `CC(=O)OCC1=C(C(=O)O)N2C(=O)[C@@H](NC(=O)Cc3cccs3)[C@H]2SC1` [Cephalothin], the Km (SPM-1) is given as 4 µM, the Km (GIM-1) is given as 16 µM and the Km (IMP-1 [1]) is given as 21 µM. The Km (VIM-1; [9]) was 53 µM.

In the case of `O=C(O)[C@@H]1CSC(c2ccccc2)=N1` [Compound 1, (R)-4,5-dihydro-2-phenylthiazole-4-carboxylic acid], the “inhibition of human MMP-8” value [2] is reported as “did not exhibit inhibition”.

With `O=C(O)c1csc(Cc2ccccc2)n1` [Compound 2, 2-benzylthiazole-4-carboxylic acid] the “inhibition of human MMP-8” value [2] was “did not exhibit inhibition”.

Molecule `O=C(NCc1ccccc1)c1cccc(O)n1` [Compound 3, N-benzyl-6-hydroxypyridine-2-carboxamide] has an IC50 (IMP-1 [3]) of 13.9 µM and a Ki (IMP-1 [3]) of 3 to 19 µM.

With `O=c1ccc(-c2ccccc2)cn1O` [Compound 4, 1-hydroxy-5-phenylpyridin-2-one] the IC50 (IMP-1 [3]) was 12 µM and the Ki (IMP-1 [3]) was 3 to 19 µM.

`O=C(O)C1CS[C@H](c2ccccc2O)N1` (stereo partly drawn) [Compound 160, (R)-2-(2-hydroxyphenyl)thiazolidine-4-carboxylic acid] showed an IC50 (Bla2; read-out: Bla2 IC50) of 16 µM and an IC50 (IMP-1 [3]; read-out: IMP-1 IC50) of 29.2 µM.

`CC(C)(C)OC(=O)Nc1cccc(C2=NC(C(=O)O)CS2)c1` (stereo not drawn) [Compound 361, 2-[3-(tert-butoxycarbonylamino)phenyl]-4,5-dihydrothiazole-4-carboxylic acid] showed an IC50 (Bla2; read-out: Bla2 IC50) of 70 µM.

`Nc1cccc(C2=NC(C(=O)O)CS2)c1` (stereo not drawn) [Compound 362, 2-(3-aminophenyl)-4,5-dihydrothiazole-4-carboxylic acid] showed an IC50 (Bla2; read-out: Bla2 IC50) of 20 µM, a Ki (Bla2; read-out: Bla2 KI) of 15 µM and an IC50 (IMP-1 [3]; read-out: IMP-1 IC50) of 100 µM.

`CC1(C)SC(c2ccc(Br)cc2)=N[C@H]1C(=O)O` [Compound 365, (S)-2-(4-bromophenyl)-4,5-dihydro-5,5-dimethylthiazole-4-carboxylic acid] showed an IC50 (IMP-1 [3]; read-out: IMP-1 IC50) of 150 µM.

For `CC(=O)Nc1cccc(C2=N[C@@H](C(=O)O)C(C)(C)S2)c1` [Compound 368, (S)-2-(3-acetamidophenyl)-4,5-dihydro-5,5-dimethyolthiazole-4-carboxylic acid], the IC50 (IMP-1 [3]; read-out: IMP-1 IC50) was 60 µM.

In the case of `COC(=O)[C@@H]1CSC(CNC(=O)OC(C)(C)C)=N1` [Compound 369, tert-butyl ((R)-4-(methoxycarbonyl)-4,5-dihydrothiazol-2-yl)methylcarbamate], the IC50 (Bla2; read-out: Bla2 IC50) is reported as 110 µM.

In the case of `C[C@@H](O)[C@H]1C(=O)N2C(C(=O)O)=C(SCCN=CN)C[C@H]12` [Imipenem, imipenem], the Km (GIM-1) is listed as 27 µM and the Km (VIM-1; [9]) is listed as 1.5 µM.

For `C[C@@H](O)[C@H]1C(=O)N2C(C(=O)O)=C(S[C@@H]3CN[C@H](C(=O)N(C)C)C3)[C@H](C)[C@H]12` [Meropenem], the Km (SPM-1) is listed as 281 µM, the Km (GIM-1) is listed as 2.7 µM and the Km (VIM-1; [8]) is listed as 48 µM.

In the case of `O=C(Cc1cccs1)N[C@@H]1C(=O)N2C(C(=O)O)=C(/C=C/c3ccc([N+](=O)[O-])cc3[N+](=O)[O-])CS[C@H]12` [Nitrocefin, nitrocefin], the Km (SPM-1) is listed as 4 µM, the Km (GIM-1) is listed as 5.8 µM and the Km (IMP-1 [1]) is listed as 27 µM. For the same molecule, the Km (VIM-1; [9]) was 17 µM.

In the case of `O=C(O)c1cccc(C(=O)O)n1` [pyridine-2,6-dicarboxylic acid], the “inhibition of CphA activity” value [4] is listed as “potently inhibit” and the “inhibitory effect on IMP-1” value (IMP-1 [5]) is listed as “potently inhibit”.

For `O=C(O)c1ccccn1` [pyridine-2-carboxylic acid], the Ki ([4]; read-out: Ki against CphA) is given as 5.7 µM, the “activity against other MBLs” value (other MBLs) is given as “little or no activity” and the “inhibitory effect on IMP-1” value (IMP-1 [5]) is given as “only a very weak inhibitory effect”.

IMP-1 (Serratia marcescens) gave a Km [6] of 25 µM.

In the case of penicillin G, the Km (SPM-1) is listed as 38 µM, the Km (GIM-1) is listed as 46 µM and the Km (IMP-1 [1]) is listed as 520 µM. For the same molecule, the “fold less tight binding to IMP-1 than imipenem” value (IMP-1 [7]) was roughly 13 ×, the “fold less tight binding to IMP-1 than nitrocefin” value (IMP-1 [7]) was roughly 20 × and the Km (VIM-1; [8]) was 841 µM.
